The data set can be described thus: physchem. As to the method:
An additional 2 mL of water was added to give a clear solution. […] This was allowed to stir for two days at ambient temperature. The solids were filtered and washed with 15 mL of (2:1 v:v) 1-propanol:water, 15 mL of 1-propanol, then 2×15 mL of methyl tert-butyl ether.

Values after ≈ are worked out from the molar mass of the structure shown.

One may read the solubility as the dissolved amount per volume that the medium holds. A high value points to much dissolved substance. In the case of `O=C([O-])c1ccc[n+]([C@@H]2O[C@H](COP(=O)(O)O)[C@@H](O)[C@H]2O)c1` [Compound 2, Nicotinic acid mononucleotide], the “water solubility as ratio water:Compound 2” value is 50:1 w:w. This compound returned a solubility (water) of about 20 mg/mL (≈ 59.7 mM).

Values taken from patent US11787830B2, “Crystalline solids of nicotinic acid mononucleotide and esters thereof and methods of making and use” (Metro International Biotech, LLC, priority 2021, dated 2023).
